The source of these data is ChEMBL document CHEMBL3390839, “Triazolopyrimidinones as -secretase modulators: structureactivity relationship, modulator profile, and in vivo profiling” (Medchemcomm, 2013).

Values after ≈ are worked out from the molar mass of the structure shown. Active and inactive are the calls of the source.

Series [1] in a line: Permeability across apical to basolateral side in human Caco2 cells. The format is ADME, cell-based. The settings on record: Caco-2, read-out: permeability.
For series [2], the target named is Voltage-gated inwardly rectifying potassium channel KCNH2 (Homo sapiens, UniProt Q12809). Briefly: Inhibition of human ERG.
Voltage-gated inwardly rectifying potassium channel KCNH2, sequence (Q12809 whole entry): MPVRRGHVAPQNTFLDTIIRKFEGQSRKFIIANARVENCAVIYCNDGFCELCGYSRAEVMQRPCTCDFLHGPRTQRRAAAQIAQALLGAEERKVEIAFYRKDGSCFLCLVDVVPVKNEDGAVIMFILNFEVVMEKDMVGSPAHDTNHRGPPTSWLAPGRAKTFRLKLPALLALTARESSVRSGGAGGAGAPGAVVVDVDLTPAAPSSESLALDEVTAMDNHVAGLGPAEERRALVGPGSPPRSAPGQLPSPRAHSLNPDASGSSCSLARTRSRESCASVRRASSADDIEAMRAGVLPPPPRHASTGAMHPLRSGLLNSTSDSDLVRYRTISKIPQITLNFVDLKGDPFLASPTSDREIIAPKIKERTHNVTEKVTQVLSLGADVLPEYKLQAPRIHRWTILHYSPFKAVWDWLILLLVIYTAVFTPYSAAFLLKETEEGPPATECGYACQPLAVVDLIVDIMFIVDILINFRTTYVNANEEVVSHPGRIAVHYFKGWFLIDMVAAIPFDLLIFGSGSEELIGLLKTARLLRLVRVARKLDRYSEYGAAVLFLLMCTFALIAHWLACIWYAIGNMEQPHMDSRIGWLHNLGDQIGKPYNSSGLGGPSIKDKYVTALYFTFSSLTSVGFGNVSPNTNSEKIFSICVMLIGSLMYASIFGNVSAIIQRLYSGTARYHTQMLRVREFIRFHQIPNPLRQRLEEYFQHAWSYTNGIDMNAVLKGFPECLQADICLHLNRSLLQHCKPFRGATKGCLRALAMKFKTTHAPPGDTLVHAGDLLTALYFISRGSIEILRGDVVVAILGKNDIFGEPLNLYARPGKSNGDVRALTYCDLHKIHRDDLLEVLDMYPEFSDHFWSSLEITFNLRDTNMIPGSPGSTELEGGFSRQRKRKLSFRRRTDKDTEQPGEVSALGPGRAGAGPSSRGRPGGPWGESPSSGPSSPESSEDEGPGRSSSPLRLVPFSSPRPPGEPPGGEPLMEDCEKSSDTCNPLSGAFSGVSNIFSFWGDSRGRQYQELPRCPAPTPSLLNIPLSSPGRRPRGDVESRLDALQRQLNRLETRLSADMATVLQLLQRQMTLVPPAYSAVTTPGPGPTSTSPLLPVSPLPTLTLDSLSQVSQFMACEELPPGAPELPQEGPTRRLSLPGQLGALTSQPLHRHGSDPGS
A short description of series [3]: Inhibition of gamma-secretase in mouse primary cortical neurons cells assessed as amyloid beta42 production after 5 days by ELISA. The format is cell-based, Cerebral cortex neuron. The settings on record: cerebral cortex neuron. A general note: An ELISA detects its analyte on a solid surface through an enzyme-linked reagent.
The nature of series [4]: Volume of distribution at steady state in C57BL/6 mouse at 3 umol/kg, iv. It is filed as ADME, organism-based. The following applies: in vivo, read-out: Vdss.
The nature of series [5]: Clearance in C57BL/6 mouse at 3 umol/kg, iv. The format is ADME, organism-based. The following applies: in vivo.
Series [6] in a line: Oral bioavailability in C57BL/6 mouse at 10 umol/kg. The format is ADME, organism-based. The settings on record: in vivo.
Series [7] can be described thus: Ratio of drug level in brain to plasma in C57BL/6 mouse. It is filed as ADME, organism-based. The following applies: brain and plasma, read-out: BPR.
Series [8] relates to Mus musculus. Briefly: Reduction in amyloid beta42 production in C57BL/6 mouse brain at 150 umol/kg, po after 1.5 hrs by ELISA relative to vehicle treated control. It is filed as functional. The following applies: C57BL/6, Brain.
The nature of series [9]: Half life in C57BL/6 mouse at 3 umol/kg, iv. The following applies: in vivo. It is filed as ADME, organism-based.
The target in another series is Gamma-secretase. Description: Inhibition of human gamma-secretase in HEK-APPswe cells assessed as amyloid beta42 production by electrochemiluminescence assay. It is filed as cell-based.
Series [10] is described as follows: Tmax in C57BL/6 mouse at 10 umol/kg, po. The following applies: in vivo. It is filed as ADME, organism-based.
Series [11] in a line: Half life in C57BL/6 mouse at 10 umol/kg, po. It is filed as ADME, organism-based. The following applies: in vivo.
Series [12] concerns Mus musculus. Description: Dose normalized AUC in C57BL/6 mouse at 10 umol/kg, po. The format is ADME, organism-based. The settings on record: in vivo.
Series [13] is described as follows: Cmax in C57BL/6 mouse at 10 umol/kg, po. It is filed as ADME, organism-based. Further details: dose 10 umol/kg, route oral. The following applies: in vivo.
The test system of series [14] is Mus musculus. Briefly: Dose normalized AUC in C57BL/6 mouse at 3 umol/kg, iv. It is filed as ADME, organism-based. The following applies: in vivo.
In series [15] the test system is Mus musculus. Description: Reduction in amyloid beta42 production in C57BL/6 mouse brain at 50 umol/kg, po after 1.5 hrs by ELISA relative to vehicle treated control. The settings on record: C57BL/6, Brain. The format is functional.
Series [16] in a line: Solubility of the compound. The format is physicochemical.
In a further series the test system is Liver microsome. Description: Intrinsic clearance in human liver microsomes measured pre ug of protein. It is filed as ADME. For orientation: Liver microsomes are vesicles of endoplasmic reticulum, rich in cytochrome P450 enzymes.
Series [17] is described as follows: Permeability across basolateral to apical side in human Caco2 cells. The format is ADME, cell-based. The following applies: Caco-2, read-out: permeability. (Passage across Caco-2 layers is used to estimate intestinal permeability.)
Series [18] addresses T1, Gamma-secretase (Homo sapiens) (UniProt Q96BI3+Q9NZ42+Q8WW43+P49768+Q92542+P49810). Description: Inhibition of human gamma-secretase in HEK-APPswe cells assessed as amyloid beta38 production at 10 nM by electrochemiluminescence assay. The format is cell-based.
In series [19] the target is T1, Gamma-secretase (Homo sapiens). Briefly: Inhibition of human gamma-secretase in HEK-APPswe cells assessed as amyloid beta40 production at 10 nM by electrochemiluminescence assay. The format is cell-based.
Series [20] shares this target. Description: Inhibition of human gamma-secretase in HEK-APPswe cells assessed as amyloid beta39 production at 10 nM by electrochemiluminescence assay. The format is cell-based.
For series [21] the target is unchanged. Description: Inhibition of human gamma-secretase in HEK-APPswe cells assessed as amyloid beta37 production at 10 nM by electrochemiluminescence assay. The format is cell-based.
Series [22] has the same target. Description: Inhibition of human gamma-secretase in HEK-APPswe cells assessed as amyloid beta42 production at 10 nM by electrochemiluminescence assay. The format is cell-based.
Series [23] shares this target. Briefly: Inhibition of human gamma-secretase in HEK-APPswe cells assessed as notch processing at 8 uM by electrochemiluminescence assay. It is filed as cell-based.
For series [24] the target is unchanged. Briefly: Inhibition of human gamma-secretase in HEK-APPswe cells assessed as notch processing at 5 uM by electrochemiluminescence assay. It is filed as cell-based.

With `COc1cc(Nc2nc3n(n2)C(C)CC(=O)N3Cc2ccccc2)ccc1-n1cnc(C)c1` (stereo in doubt; 19B) [listing 1 of 2 here], in series [1], the Papp A→B is 22 ×10⁻⁶ cm/s. Further, the IC50 in series [2] turned out to be 3.7 µM. Moreover, the pIC50 was 7.7 in [3] and 8 at Gamma-secretase. In addition, the Vd in [4] was 0.9 L/kg. The same compound displayed a clearance in [5] of 21 mL/min/kg. In addition, in series [6], the bioavailability is 32%. In addition, the Kp in [7] was found to be 0.72. Besides, the inhibition in vivo at 150 µmol/kg with Mus musculus [8] was 24%. For the same compound, the half-life is 36 min in series [9] and 312 min in series [11]. Moreover, the Tmax in series [10] was 30 min. In addition, the AUC/dose in the series on Mus musculus [12] worked out at 0.27 kg·h/L; in the series with Mus musculus [14], 0.84 kg·h/L. In series [13], this compound gave a Cmax of 1200 nM. In the series with Mus musculus [15], this compound registered an inhibition in vivo at 50 µmol/kg of 9%. This compound had a solubility in series [16] of 6 µM (≈ 2.66 µg/mL). The CLH in the series on Liver microsome is 52 µL/min. Moreover, the Papp B→A in series [17] was found to be 13 ×10⁻⁶ cm/s.

For `COc1cc(Nc2nc3n(n2)C(C)CC(=O)N3Cc2ccccc2)ccc1-n1cnc(C)c1` (stereo in doubt; 19B) [listing 2 of 2 here], the inhibition result in series [18], in [19], in series [20] and in series [21] was “inactive” throughout. Also, in series [22], the inhibition entry was “Active”. The result in [23] was inactive.

In the case of `COc1cc(Nc2nc3n(n2)C(C2CC2)CCN3CC(C)(C)O)ccc1-n1cnc(C)c1` (stereo in doubt; 42A), the inhibition result in [18], in [19], in series [20], in series [21] and in [22] was “Active” in each case. In addition, in series [24], the outcome was inactive.

One may read the IC50 as the concentration needed to halve the response being measured. As usually defined, the pIC50 is the IC50 on a negative log10 scale, so that one unit is a factor of ten. What is called clearance is the volume of plasma or blood freed of the substance per unit of time. Read a high clearance as a high capacity for elimination. By bioavailability is commonly meant dose-corrected exposure relative to a reference, in per cent. In general, inhibition in vivo refers to how much of the control response was suppressed. A higher inhibition in vivo goes with a strong effect. For orientation: half-life means the time needed for the level to fall by half in the phase considered. Low values mean fast loss, high ones slow loss. A word on the Tmax: it is the time at which the peak concentration occurs. In general, Cmax refers to the peak of the concentration-time curve. The term solubility denotes the dissolved amount per volume that the medium holds. Read a high solubility as a readily soluble substance.
